Assay results from patent publication US6028195A, “Piperazine derivatives and process for the preparation thereof” (Samjin Pharmaceutical Co., Ltd., priority 1996, dated 2000).
Values after ≈ are worked out from the molar mass of the structure shown. Where two headings read alike, the source gives them in different places.

Assays:
Assay type in all cases: cell-based
Conditions in all cases: for IC50: Homo sapiens
[1] = tested on: HCT-15 (human colon); experiment: SRB assay, in vitro antitumor effect against HCT-15
Method: (§1) In vitro antitumor effect against human tumor cell lines.
(§2) b. 5×10^3 ~2×10^4 cells were added into each well of 96-well plate and cultured in 5% CO2 incubator, at 37° C., for 24 hours.
(§3) c. Each sample drug was dissolved in a little DMSO and diluted with the used medium to a prescribed concentration for experiments, wherein the final concentration of DMSO was controlled below 0.5%.
(§4) d. Medium of each well cultured for 24 hours as above b. was removed by aspiration. Each 200 μl of drug samples prepared in c. was added into each well and the wells were cultured for 48 hours. Tz(time zero) plates were collected at the point of time drugs were added.
(§5) e. According to the SRB assay method, cell fixing with TCA, staining with 0.4% SRB solution, washing with 1% acetic acid and elution of dye with 10 mM Tris solution were carried out on Tz plates and culture-ended plates, and then, OD values were measured at 520 nm.
(§6) a. Time zero(Tz) value was determined with measuring the SRB protein value at the point of time drugs were added.
(§7) b. Control value(C) was determined with the OD value of an well untreated with drug.
(§8) c. Drug-treated test value(T) was determined with the OD value of drug-treated well.
(§9) d. Effects of drugs were estimated with growth stimulation, net growth inhibition, net killing etc. calculated from Tz, C and T.
(§10) e. If T≥Tz, cellular response function was calculated by 100×(T-Tz)/(C-Tz), and if T<Tz, by 100×(T-Tz)/Tz.

[2] = tested on: SKOV-3 (human ovarian); experiment: SRB assay, in vitro antitumor effect against SKOV-3
Method: as §1, §2, §3, §4, §5, §6, §7, §8, §9, §10

[3] = tested on: SKMEL-2 (human melanoma); experiment: SRB assay, in vitro antitumor effect against SKMEL-2
Method: as §1, §2, §3, §4, §5, §6, §7, §8, §9, §10

[4] = tested on: XF 498 (human CNS); experiment: SRB assay, in vitro antitumor effect against XF 498
Method: as §1, §2, §3, §4, §5, §6, §7, §8, §9, §10

[5] = tested on: A549 (human non-small lung cell); experiment: SRB assay, in vitro antitumor effect against A549
Method: as §1, §2, §3, §4, §5, §6, §7, §8, §9, §10

[6] = HCT 15, 48 hours, read-out: ED50 (the source's name)
[7] = SK-OV-3, 48 hours, read-out: ED50 (the source's name)
[8] = SK-MEL-2, 48 hours, read-out: ED50 (the source's name)
[9] = XF498, XF-498, 48 hours, read-out: ED50 (the source's name)
[10] = A549, 48 hours, read-out: ED50 (the source's name)

Row | Compound | IC50 [1, 6] | IC50 [2, 7] | IC50 [3, 8] | IC50 [4, 9] | IC50 [5, 10] | further results
1 | COc1cc(OC)cc(N2CCN(C(=O)N(C)c3cc(C)c(C)nc3OC)CC2)c1 [Example 132, 1-[N-(5,6-Dimethyl-2-methoxypyridin-3-yl)-N-methylaminocarbonyl]-4-(3,5-dimethoxyphenyl)piperazine] | 40 ng/mL (≈ 96.5 nM) | 10 ng/mL (≈ 24.1 nM) | 30 ng/mL (≈ 72.4 nM) | 40 ng/mL (≈ 96.5 nM) | 30 ng/mL (≈ 72.4 nM) | 
2 | CCC(C)(O)c1cc(N(C)C(=O)N2CCN(c3cc(C)cc(C)c3)CC2)c(OC)nc1C (centres unmarked) [Example 156, 1-{N-[5-(1-Hydroxy-1-methylpropyl)-2-methoxy-6-methylpyridin-3-yl]-N-methylaminocarbonyl}-4-(3,5-dimethylphenyl)piperazine] | 70 ng/mL (≈ 159 nM) | 100 ng/mL (≈ 227 nM) | 90 ng/mL (≈ 204 nM) | 60 ng/mL (≈ 136 nM) | 60 ng/mL (≈ 136 nM) | 
3 | CCN(C(=O)N1CCN(c2cc(OC)cc(OC)c2)CC1)c1cc2ccccc2nc1OC [Example 99, 1-[N-Ethyl-N-(2-methoxyquinolin-3-yl)aminocarbonyl]-4-(3,5-dimethoxyphenyl)piperazine] | 360 ng/mL (≈ 799 nM) | 410 ng/mL (≈ 910 nM) | 400 ng/mL (≈ 888 nM) | 520 ng/mL (≈ 1150 nM) | 430 ng/mL (≈ 954 nM) | 
4 | CCc1cc(NC(=O)N2CCN(c3ccccc3SC)CC2)c(OC)nc1C [Example 4, 1-[(5-Ethyl-6-methyl-2-methoxypyridin-3-yl)aminocarbonyl]-4-(2-methylthiophenyl)piperazine] | 93 ng/mL (≈ 232 nM) | 22 ng/mL (≈ 54.9 nM) | 7 ng/mL (≈ 17.5 nM) | 940 ng/mL (≈ 2350 nM) | 7 ng/mL (≈ 17.5 nM) | 
5 | COc1cc(OC)cc(N2CCN(C(=S)Nc3cc(C(C)O)c(C)nc3OC)CC2)c1 (centres unmarked) [Example 63, 1-{[5-(1-Hydroxyethyl)-2-methoxy-6-methylpyridin-3-yl]aminothiocarbonyl}-4-(3,5-dimethoxyphenyl)piperazine] | 70 ng/mL (≈ 157 nM) | 100 ng/mL (≈ 224 nM) | 110 ng/mL (≈ 246 nM) | 30 ng/mL (≈ 67.2 nM) | 40 ng/mL (≈ 89.6 nM) | 
6 | COc1nc(C)c(C(C)=O)cc1N(C)C(=O)N1CCN(c2cc(C)cc(C)c2)CC1 [Example 151, 1-[N-(5-Acetyl-2-methoxy-6-methylpyridin-3-yl)-N-methylaminocarbonyl]-4-(3,5-dimethylphenyl)piperazine] | 37 ng/mL (≈ 90.1 nM) | 8 ng/mL (≈ 19.5 nM) | 7 ng/mL (≈ 17.1 nM) | 7 ng/mL (≈ 17.1 nM) | 4 ng/mL (≈ 9.74 nM) | 
7 | COc1cc(OC)cc(N2CCN(C(=O)N(C)c3cc(C(C)O)c(C)nc3OC)CC2)c1 (centres unmarked) [Example 152, 1-{N-[5-(1-Hydroxyethyl)-2-methoxy-6-methylpyridin-3-yl]-N-methylaminocarbonyl}-4-(3,5-dimethoxyphenyl)piperazine] | 440 ng/mL (≈ 990 nM) | 370 ng/mL (≈ 832 nM) | 200 ng/mL (≈ 450 nM) | 260 ng/mL (≈ 585 nM) | 180 ng/mL (≈ 405 nM) | 
8 | COc1ccc(C)c(N2CCN(C(=O)N(C)c3cc(C)c(C)nc3OC)CC2)c1 [Example 140, 1-[N-(5,6-Dimethyl-2-methoxypyridin-3-yl)-N-methylaminocarbonyl]-4-(5-methoxy-2-methylphenyl)piperazine] | 490 ng/mL (≈ 1230 nM) | 470 ng/mL (≈ 1180 nM) | 560 ng/mL (≈ 1410 nM) | 540 ng/mL (≈ 1360 nM) | 330 ng/mL (≈ 828 nM) | 
9 | COc1cc(OC)cc(N2CCN(C(=O)N(C)c3cc(C(C)OC)c(C)nc3OC)CC2)c1 (centres unmarked) [Example 157, 1-{N-[2-Methoxy-5-(1-methoxyethyl)-6-methylpyridin-3-yl]-N-methylaminocarbonyl}-4-(3,5-dimethoxyphenyl)piperazine] | 0.211 ng/mL (≈ 0.46 nM) | 0.002 ng/mL (≈ 0.00436 nM) | 0.043 ng/mL (≈ 0.0938 nM) | 0.245 ng/mL (≈ 0.534 nM) | 0.002 ng/mL (≈ 0.00436 nM) | 
10 | COc1cc(OC)cc(N2CCN(C(=O)N(C)c3cc(C)c(C)cc3OC)CC2)c1 [Example 190, 1-[N-(4,5-Dimethyl-2-methoxyphenyl)-N-methylaminocarbonyl]-4-(3,5-dimethoxyphenyl)piperazine] | 17 ng/mL (≈ 41.1 nM) | 8 ng/mL (≈ 19.3 nM) | 2 ng/mL (≈ 4.84 nM) | 443 ng/mL (≈ 1070 nM) | 4 ng/mL (≈ 9.67 nM) | 
11 | COc1nc2ccccc2cc1N(C)C(=O)N1CCN(c2cc(C)cc(C)c2)CC1 [Example 103, 1-[N-(2-Methoxyquinolin-3-yl)-N-methylaminocarbonyl]-4-(3,5-dimethylphenyl)piperazine] | 330 ng/mL (≈ 816 nM) | 460 ng/mL (≈ 1140 nM) | 490 ng/mL (≈ 1210 nM) | 360 ng/mL (≈ 890 nM) | 520 ng/mL (≈ 1290 nM) | 
12 | CCc1nc(OC)c(NC(=O)N2CCN(c3cccc(O)c3)CC2)cc1C [Example 14, 1-[(6-Ethyl-2-methoxy-5-methylpyridin-3-yl)aminocarbonyl]-4-(3-hydroxyphenyl)piperazine] | 7 ng/mL (≈ 18.9 nM) | 20 ng/mL (≈ 54 nM) |  | 160 ng/mL (≈ 432 nM) | 22 ng/mL (≈ 59.4 nM) | IC50 ([3]; SK-MEL-2, 48 h, read-out: ED50): 1 ng/mL (≈ 2.7 nM)
13 | COc1cc(C)c(C)cc1NC(=O)N1CCN(c2c(C)c(C)cc(C)c2C)CC1 [Example 174, 1-[(4,5-Dimethyl-2-methoxyphenyl)aminocarbonyl]-4-(2,3,5,6-tetramethylphenyl)piperazine] | 330 ng/mL (≈ 834 nM) | 560 ng/mL (≈ 1420 nM) | 270 ng/mL (≈ 683 nM) | 490 ng/mL (≈ 1240 nM) | 540 ng/mL (≈ 1370 nM) | 
14 | COc1cccc2c1C(=O)c1c(O)c3c(c(O)c1C2=O)C[C@@](O)(C(=O)CO)C[C@@H]3O[C@H]1C[C@H](N)[C@H](O)[C@H](C)O1 [Adriamycin, reference compound] |  |  |  |  |  | IC50 ([1]; HCT-15, 48 h, read-out: ED50): 1670 ng/mL (≈ 3070 nM); IC50 ([2]; SK-OV-3, 48 h, read-out: ED50): 17.6 ng/mL (≈ 32.4 nM); IC50 ([3]; SK-MEL-2, 48 h, read-out: ED50): 10.8 ng/mL (≈ 19.9 nM); IC50 ([4]; XF498, 48 h, read-out: ED50): 25 ng/mL (≈ 46 nM); IC50 ([5]; A549, 48 h, read-out: ED50): 16.8 ng/mL (≈ 30.9 nM)
15 | 1-{[2-(Pyridin-2-yl)quinolin-4-yl]aminocarbonyl}-4-(3,5-dimethoxyphenyl)piperazine [Example 128] |  |  |  |  |  | ED50 ([1]; HCT 15, 48 hours): 510 ng/mL; ED50 ([2]; SK-OV-3, 48 hours): 370 ng/mL; ED50 ([3]; SK-MEL-2, 48 hours): 420 ng/mL; ED50 ([4]; XF-498, 48 hours): 440 ng/mL; ED50 ([5]; A549, 48 hours): 400 ng/mL
16 | COc1cc(C)c(C)cc1NC(=S)N1CCN(c2ccccc2F)CC1 [Example 202, 1-[(4,5-Dimethyl-2-methoxyphenyl)amminothiocarbonyl]-4-(2-fluorophenyl)piperazine] | 640 ng/mL (≈ 1710 nM) | 1260 ng/mL (≈ 3370 nM) | 480 ng/mL (≈ 1290 nM) | 2090 ng/mL (≈ 5600 nM) | 570 ng/mL (≈ 1530 nM) | 
17 | CCCc1nc(OC)c(NC(=O)N2CCN(c3cccc(O)c3)CC2)cc1C [Example 17, 1-[(2-Methoxy-5-methyl-6-propylpyridin-3-yl)aminocarbonyl]-4-(3-hydroxyphenyl)piperazine] | 8 ng/mL (≈ 20.8 nM) | 10 ng/mL (≈ 26 nM) | 21 ng/mL (≈ 54.6 nM) |  | 18 ng/mL (≈ 46.8 nM) | IC50 ([4]; XF498, 48 h, read-out: ED50): 77 ng/mL (≈ 200 nM)
18 | CCCc1nc(OC)c(N(C)C(=O)N2CCN(c3cc(OC)cc(OC)c3)CC2)cc1C [Example 148, 1-[N-(2-Methoxy-5-methyl-6-propylpyridin-3-yl)-N-methylaminocarbonyl]-4-(3,5-dimethoxyphenyl)piperazine] | 50 ng/mL (≈ 113 nM) | 70 ng/mL (≈ 158 nM) | 30 ng/mL (≈ 67.8 nM) | 50 ng/mL (≈ 113 nM) | 10 ng/mL (≈ 22.6 nM) | 
19 | COc1cc(OC)cc(N2CCN(C(=O)N(c3cc(C)c(C)nc3OC)C(C)C)CC2)c1 [Example 134, 1-[N-Isopropyl-N-(5,6-dimethyl-2-methoxypyridin-3-yl)aminocarbonyl]-4-(3,5-dimethoxyphenyl)piperazine] | 6.5 ng/mL (≈ 14.7 nM) | 9.1 ng/mL (≈ 20.6 nM) | 8.6 ng/mL (≈ 19.4 nM) | 2 ng/mL (≈ 4.52 nM) | 0.9 ng/mL (≈ 2.03 nM) | 
